The record followed here is PubChem BioAssay (NCI).

In the assay the test system is SN12K1 renal. The assay is described as follows: NCI anticancer screen, dose series, 48 h.

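Five concentrations, 48 hours, 96-well plates. At the TGI there is no net growth.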

Consider `CCOC(=O)c1cc(Cl)ccc1OC(N)=O`, for which the TGI was > 100 µM.
